pIC50: −log10 of the molar value.
Target: T1, Prostaglandin G/H synthase 1 (Ovis aries, UniProt P05979)
T1 sequence (P05979 whole entry): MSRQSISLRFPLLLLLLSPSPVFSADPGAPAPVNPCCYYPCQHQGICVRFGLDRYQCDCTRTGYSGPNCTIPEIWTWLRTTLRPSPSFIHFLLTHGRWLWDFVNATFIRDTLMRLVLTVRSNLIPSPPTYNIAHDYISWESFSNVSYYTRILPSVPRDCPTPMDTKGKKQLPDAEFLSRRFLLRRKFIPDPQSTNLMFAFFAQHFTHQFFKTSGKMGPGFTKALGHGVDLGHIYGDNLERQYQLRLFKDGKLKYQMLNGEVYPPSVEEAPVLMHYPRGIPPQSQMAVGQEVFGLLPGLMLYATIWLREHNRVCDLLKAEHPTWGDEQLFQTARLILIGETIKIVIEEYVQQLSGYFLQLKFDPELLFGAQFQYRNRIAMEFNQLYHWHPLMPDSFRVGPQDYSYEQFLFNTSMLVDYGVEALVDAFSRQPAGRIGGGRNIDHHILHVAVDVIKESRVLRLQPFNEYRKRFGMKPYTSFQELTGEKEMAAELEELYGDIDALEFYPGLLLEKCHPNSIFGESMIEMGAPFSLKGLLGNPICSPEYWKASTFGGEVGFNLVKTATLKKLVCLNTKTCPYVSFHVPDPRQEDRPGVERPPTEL
Assay: Inhibition of ovine COX1 by enzyme immuno assay

Row | SMILES | pIC50
1 | O=C1Nc2ccc(F)cc2C12CC(c1ccc(Br)cc1)N=N2 (configuration not stated) | < 4.30
2 | Cc1ccc(C2CC3(N=N2)C(=O)Nc2ccc(F)cc23)cc1 (configuration not stated) | < 4.30

Reference: BindingDB's records for doi:10.1016/j.bmc.2012.03.044 (University of Mansoura, 2012)
